This passage reports viability results from publication PMC12040169 (PLOS Biology, 2025).

The data set in a line: in vitro. To be noted: human, hela cells, % viability.

Consider `CCc1nc2ccc(C(=O)NCCc3c[nH]c4ccccc34)cn2c1N(C)Cc1ccncc1` [CBK145636], for which the viability (in general, a read-out of living cells in per cent, often relative to untreated cells) at 28.5 h, 10 µM is 99.7%.

On to `O=C(NCC(c1ccccc1)c1ccccc1)N1CCN(c2ccccc2)CC1` [CBK155197], for which the viability at 28.5 h, 10 µM was 89.8%. `O=C(c1ccc(S(=O)(=O)c2ccc(F)cc2)c([N+](=O)[O-])c1)N1CCCCCC1` [CBK294453]: the viability at 28.5 h, 10 µM came out at 78.3%. With `O=C(O)C1C(C(=O)O)C1C(=O)O` (stereo not shown) [CBK230432] the figure was 94.9%; with `COC(=O)c1cc(-c2ccccc2)sc1NC(=O)c1cnccn1` [CBK268175], 93.5%; with `O=[N+]([O-])c1ccc(OCCO)cc1` [CBK000628], 84.8%. With `COCOc1ccc(-c2nc(-c3cccc(NS(C)(=O)=O)c3)cnc2N)cc1` [CBK063985] the figure was 105%. With `O=S(=O)([O-])c1cc(S(=O)(=O)O)ccc1Nc1cc2c(nc3ccccc3[n+]2-c2ccccc2)c2ccccc12` [CBK260997N] the figure was 102%; with `COC(=O)c1ccc(CSc2nnc(-n3sc4ccccc4c3=O)s2)cc1` [CBK116502], 90.6%. For the molecule `Cn1c(C(=O)O)ccc1S(=O)(=O)NCc1ccco1` [CBK113686], the viability at 28.5 h, 10 µM was 105%.

With `c1csc(-c2cnc3ccccc3n2)c1` [CBK020525], the viability at 28.5 h, 10 µM came out at 93.2%. With `CC(=O)N1CCN2C(=O)c3cc(-c4ccc5c(c4)OCO5)ccc3NC(=O)[C@H]2C1` [CBK289597], the viability at 28.5 h, 10 µM amounted to 90.1%.

As for `Cc1nc2ccccc2n1C(F)(F)C(F)F` [CBK022023], the viability at 28.5 h, 10 µM came to 116%. With `O=C(O)CCC(=O)N1C[C@@H]2C[C@H](C1)c1ccc(-c3ccc4ccccc4c3)c(=O)n1C2` [CBK289179] the figure was 107%; with `CS(=O)(=O)N1CC2(CCN(Cc3cc(=O)[nH]c(=O)[nH]3)CC2)c2ccccc21` [CBK126679], 103%. The result for `CC(=O)N1CC[C@H]2NC(=O)CNC(=O)C3(CCCC[C@H]2C1)CCN(C(=O)COc1ccccc1)CC3` [CBK292101] reads 100%; that for `CC(C)C[C@H](NC(=O)N1CC(=O)Nc2ccccc21)C(=O)O` [CBK286589], 94.8%; that for `CC1(C)CC(=O)C=C(C(=O)NCc2c(F)cccc2F)O1` [CBK153287], 91.2%. With `Cc1ccc(C(=O)CCC(=O)CCC(=O)O)cc1` [CBK265546] the figure was 95.6%. Regarding `Cc1cccnc1C(Cc1ccsc1)NS(=O)(=O)c1ccc2[nH]c(=O)[nH]c(=O)c2c1` (stereo not shown) [CBK286356], the viability at 28.5 h, 10 µM stood at 111%.

Consider `COc1ccccc1N(CC(O)CN1C(C)CCCC1C)S(=O)(=O)c1ccccc1` (stereo not shown) [CBK265585], for which the viability at 28.5 h, 10 µM was 94.4%. With `COc1ccc(-c2nnc3[nH]c(=O)n(C)c(=O)c3n2)cc1OC` [CBK263914] the figure was 89%; with `Cc1nc(N)sc1-c1csc(Nc2cccc(C(F)(F)F)c2)n1` [CBK267357], 95.2%; with `CN1CCOC(CNCc2ccc(OCC(N)=O)cc2)C1` (stereo not shown) [CBK304830], 102%. With `COc1cc(NC(=O)NCC2CCN(CCOc3c(OC)cccc3OC)CC2)cc(OC)c1` [CBK051514] the figure was 89.1%. With `CCN1CC2(CCC1=O)CCN(Cc1cccc(C(C)N(C)C)c1)CC2` (stereo not shown) [CBK307250] the figure was 116%. With `COC(=O)c1ccccc1NC(=O)CSc1nnc(-c2ccccc2)[nH]1` [CBK266338], the viability at 28.5 h, 10 µM came to 96.7%. The result for `O=C(CN1CCN(C/C=C/c2ccccc2)CC1)Nc1ccc(C2CCCCC2)cc1` [CBK074497] reads 112%; that for `Cc1nc2ccc(C(=O)N3CCN(C4CCCCC4)C(=O)C3)cc2[nH]1` [CBK282131], 86.5%.

`CCCS(=O)(=O)N1Cc2c(ncn2C)C[C@H]1C(=O)OC` [CBK288991]: the viability at 28.5 h, 10 µM is 90.2%. With `COc1ccccc1C1(NC(=O)CCn2cccn2)CCCC1` [CBK283626] the figure was 103%; with `CC1=C(C)CC(C(=O)NC(C)CCc2ccccc2)C(C(=O)O)C1` (stereo not shown) [CBK265452], 99.9%. The result for `O=C(NCc1ccc2c(c1)CCCO2)C1CC2C=CC1C21CC1` (stereo not shown) [CBK281503] reads 89.1%; that for `O=C(c1ccc2ccccc2n1)N1CCC(Cc2ccccc2)CC1` [CBK200184], 96.4%; that for `O=C(Nc1ccc(OCc2ccccc2)cc1)OCC1CN(Cc2ccccc2)CCO1` (stereo not shown) [CBK074792], 102%. The result for `Cc1cccc(C(=O)NCCc2nc3ccccc3[nH]2)c1` [CBK263493] reads 100%; that for `CC(C)(C)c1ccc([S+]([O-])c2cncc(N3CCNCC3)n2)cc1` (stereo not shown) [CBK051434C], 88.4%; that for `OCCOc1cccnc1OCCN1CCCC1` [CBK039174], 85.3%. With `Cc1ccn(CCNC(=O)CC2CC3CCC2C3)n1` (stereo not shown) [CBK282068], the viability at 28.5 h, 10 µM was determined as 110%. With `O=C(CN1CCC(O)(Cn2cnc3ccccc32)CC1)c1ccc(-c2ccccc2)cc1` [CBK286306] the figure was 86.8%; with `CN(C)CCn1c(=O)[nH]c2ncc(-c3cc(C(F)(F)F)cc(C(F)(F)F)c3)nc21` [CBK065028], 112%. With `CN1CCN(c2nc(-c3ccccc3)cc(-c3ccc(Br)cc3)n2)CC1` [CBK262774] the figure was 93.7%; with `COc1ccnc(N2CCCN(Cc3ncc(Cl)n3C)CC2)n1` [CBK305152], 111%.

For the molecule `O=C(CCc1ccccc1F)NC1CCc2nccn2C1` (stereo not shown) [CBK306124], the viability at 28.5 h, 10 µM was 113%.

For `O=c1cc(-c2cccc([N+](=O)[O-])c2)c2ccc(OCc3cc4c(cc3Cl)OCO4)cc2o1` [CBK265652], the viability at 28.5 h, 10 µM is 92.1%.

For `CCNC(=O)C1(Cc2ccccc2-c2ccccc2)CCN(C(=O)c2ccccc2)CC1` [CBK285700], the viability at 28.5 h, 10 µM stood at 109%. With `O=C(NCCCN1CCOCC1)C(=O)NC1CC1` [CBK267243], the viability at 28.5 h, 10 µM is 101%.

`COc1ccc(NS(=O)(=O)c2ccc(NC(=O)c3nc4nc(C)cc(C(F)F)n4n3)cc2)cc1` [CBK266123]: the viability at 28.5 h, 10 µM was determined as 91.4%.

With `O=C(O)C1CCCCC1C(=O)N1CCN(Cc2cccc(Cl)c2)CC1` (stereo not shown) [CBK270330], the viability at 28.5 h, 10 µM amounted to 85%. The result for `Cc1n[n+]2c(C(=O)Nc3ccc(S(=O)(=O)Nc4nccs4)cc3)c(C)[n-]n2c1[N+](=O)[O-]` [CBK293983] reads 83.2%.

As to `CCOC(=O)CNS(=O)(=O)c1ccc(F)cc1` [CBK034442], the viability at 28.5 h, 10 µM amounted to 92.3%. With `Nc1ncnc2c1nc1n2[C@H]2C[C@@H](O)[C@H](O2)C1=O` [CBK201259] the figure was 98.2%.

`O=C(Nc1ccc(Br)cc1C(=O)O)c1ccc2c(c1)C(=O)N(Cc1cccnc1)C2=O` [CBK266776]: the viability at 28.5 h, 10 µM was found to be 96.7%. The result for `COc1ccc(-n2c(C)c(C#N)c3cc(Br)c(O)c(Br)c32)cc1` [CBK101113] reads 91.6%; that for `COc1cc(-c2nc(N)n[nH]2)cc(OC)c1OC` [CBK288077], 103%. With `C=CCn1c(Cc2csc(NC(=O)c3cc(C)cc(C)c3)n2)n[nH]c1=S` [CBK295358] the figure was 77%.

In the case of `CCOC(=O)C1=C(C)Nc2nc(C)nc(Cl)c2O1` [CBK021504], the viability at 28.5 h, 10 µM is 103%. With `CC(=O)c1c(-c2cccc(C(=O)N(C)C3CCN(C)C3)c2)cnn1C` (stereo not shown) [CBK306633] the figure was 106%. The result for `OC(CN1CCN(c2ccc(C(F)(F)F)cn2)CC1)c1ccc2c(c1)OCCO2` (stereo not shown) [CBK074707] reads 104%. With `O=C(Nc1cccc(-c2nnco2)c1)C1CCCCC1` [CBK296662] the figure was 86.2%; with `COc1cccc(CCC(=O)n2ccn(CCCOc3ccccc3)c2=O)c1` [CBK106565], 104%. As for `COc1ccc(S(=O)(=O)N2CCN(C(=O)c3ccco3)CC2)c2ccccc12` [CBK269839], the viability at 28.5 h, 10 µM was 86.8%. With `CS(=O)(=O)N1CCCCCC1c1cc(-c2ccc(F)cc2)no1` (stereo not shown) [CBK284669] the figure was 91.8%. With `CN(CC(=O)Nc1cccnc1N1CCNCC1)C(=O)c1ccccc1` [CBK028264T] the figure was 95.8%. The result for `Cn1cnc([N+](=O)[O-])c1Sc1cccs1` [CBK002620] reads 90.6%; that for `Cc1ccccc1COc1cccn2c(N(C)CC3CCCO3)c(C)nc12` (stereo not shown) [CBK147231], 115%; that for `O=C(Nc1ccc2c(c1)C(=O)NC2=O)c1ccccc1` [CBK270384], 86.5%. In the case of `c1c2c(cc3sc(N4CCOCC4)nc13)OCO2` [CBK287494], the viability at 28.5 h, 10 µM was 97.7%. The result for `Nc1nc(N)c2cc(C(F)(F)F)ccc2n1` [CBK025934] reads 66.4%. The result for `O=C(Nc1sc2c(c1C(=O)NCc1cccnc1)CCCC2)c1ccc(Cl)cc1` [CBK265498] reads 88.2%. The result for `Nc1nc2c(ncn2[C@H]2C[C@@H](O)[C@@H](CO)O2)c(=S)[nH]1` [CBK201213] reads 59.3%; that for `Cc1ccc(C(=O)Nc2cccc(CCc3ccncc3)c2)c(=O)n1C` [CBK285556], 84.4%; that for `CC(Sc1nc2ccccc2c(=O)n1C)C(=O)N1CCOCC1` (stereo not shown) [CBK305031], 88.5%. For `O=C(O)CNCCC(=O)c1ccc([N+](=O)[O-])cc1` [CBK020544], the viability at 28.5 h, 10 µM stood at 87%. With `N#Cc1ccc(CN2CCCN(S(=O)(=O)c3ccc(C(=O)c4ccccc4)cc3)CC2)cc1` [CBK062962] the figure was 89.9%; with `O=C(NC(NC(=O)c1ccccc1F)c1ccc2c(c1)OCO2)c1ccccc1F` [CBK265742], 106%; with `O=c1c2c3nc4ccccc4nc3n(CCc3ccccc3)c2ncn1C1CCCC1` [CBK269464], 105%. Consider `O=C(c1ccc(F)cc1)C1CCN(Cc2ccc(Cl)c(Cl)c2)CC1` [CBK149114], for which the viability at 28.5 h, 10 µM is 98.5%. With `Cc1ccc(CSCCNS(=O)(=O)c2ccc([N+](=O)[O-])cc2)cc1` [CBK268496] the figure was 108%.
